The values below come from patent publication US20160183537A1 (priority 2014, published 2016).

Assay type in all cases: in vivo
For test [1], the system named is Pepper Botrytis Blight (Botrytis cinerea). The test is described as follows: Greenhouse control of Pepper Botrytis Blight. The following applies: 7 days after infection (1M conidia/ml), RTI472 and SERENADE OPTIMUM 1×10^8 cfu/ml, Tebuconazole 50 g a.i./ha, Chlorothalonil 500 g a.i./ha, non-treated 6% disease.
The subject of test [2] is Bean Rust (Uromyces appendiculatus). The test is described as follows: Greenhouse control of bean rust, second experiment. The settings on record: common bean, 10 days after infection (200 k conidia/ml), RTI472 and SERENADE OPTIMUM 1×10^8 cfu/ml, Tebuconazole 50 g a.i./ha, Chlorothalonil 500 g a.i./ha, non-treated 23% disease.
Test [3] relates to Pepper Botrytis Blight (Botrytis cinerea). The test is described as follows: Greenhouse dose response for control of Pepper Botrytis Blight. The following applies: 3 days after infection (1M conidia/ml), 50 g a.i./ha.
The subject of test [4] is Soybean Powdery Mildew (Microsphaera diffusa). The test is described as follows: Greenhouse control of soybean powdery mildew. The following applies: 9 days after placing between infected flats, 1×10^8 cfu/ml, Tebuconazole (HORIZON) 50 g a.i./ha, non-treated 70% disease.
Test [5] deals with Pepper Botrytis Blight (Botrytis cinerea). Description: Greenhouse control of Pepper Botrytis Blight at varying pathogen inoculation rates. The settings on record: 4 days after infection, biologicals 1 × 10^8, Tebuconazole 50 g a.i./ha, non-treated 65% disease.

Consider `N#Cc1c(Cl)c(Cl)c(Cl)c(C#N)c1Cl` [Chlorothalonil], for which the “Percent Disease Control” value in test [1] amounted to 99 a Percent; in test [2] it was 100 a Percent.
As to `CC(C)(C)C(O)(CCc1ccc(Cl)cc1)Cn1cncn1` (centres unmarked) [Tebuconazole], the “Percent Disease Control” value was 99 a Percent in test [1]; 100 a Percent in test [3]; 100 a Percent in test [2]; 100 a Percent in test [4]; 100 a Percent in test [5] (inoculum 1M conidia/ml); 94 a Percent in test [5] (inoculum 2M conidia/ml).
